Reference: patent US20250296959A1, “B7-H3 TARGETING PEPTIDES AND CONSTRUCTS THEREOF” (Mariana Oncology Inc., priority 2024, published 2025)
Starred links: 1 amine or outer side, 2 acyl side, 3 side chain; linkers in the order of their positions; H or OH if unused. Positions of bridges follow the written chain, without caps; N, C: chain ends. Non-standard residues stand in square brackets, D forms with d. Residues, ends and D or L forms follow the SMILES beside them. Groups on a side chain read outwards from the residue. ξ: configuration not given here. *: point of attachment. Ala(1-CH2CO2H-4-piperidyl) = N[C@@H](CC1CCN(CC(=O)O)CC1)C(=O)O; DOTA = O=C(O)CN1CCN(CC(=O)O)CCN(CC(=O)*)CCN(CC(=O)O)CC1; NH(CH2CH2O)4CH2CO = O=C(COCCOCCOCCOCCN[*:1])[*:2]; Butanoyl(4-(4-I-phenyl)) = O=C(CCCc1ccc(I)cc1)*; Trp(5-F) = N[C@@H](Cc1c[nH]c2ccc(F)cc12)C(=O)O; X1 = C[C@@H](c1ccccc1)[C@H](N[*:1])C(=O)[*:2]; PEG8 = NCCOCCOCCOCCOCCOCCOCCOCCOCCC(=O)O; Phe(3-F) = N[C@@H](Cc1cccc(F)c1)C(=O)O; 1Nal = N[C@@H](Cc1cccc2ccccc12)C(=O)O; Ala(4-THP) = N[C@@H](CC1CCOCC1)C(=O)O; αMeY = C[C@](N)(Cc1ccc(O)cc1)C(=O)O; Val(3-OH) = CC(C)(O)[C@H](N)C(=O)O; Aad = N[C@@H](CCCC(=O)O)C(=O)O; Tle = CC(C)(C)[C@H](N)C(=O)O; hLeu = CC(C)CC[C@H](N)C(=O)O; Nle = CCCC[C@H](N)C(=O)O; ξV = CC(C)C(N)C(=O)O

Biological target: T1, human 4lg B7-H3 (Homo sapiens, UniProt Q5ZPR3)
T1 sequence (Q5ZPR3 29-534): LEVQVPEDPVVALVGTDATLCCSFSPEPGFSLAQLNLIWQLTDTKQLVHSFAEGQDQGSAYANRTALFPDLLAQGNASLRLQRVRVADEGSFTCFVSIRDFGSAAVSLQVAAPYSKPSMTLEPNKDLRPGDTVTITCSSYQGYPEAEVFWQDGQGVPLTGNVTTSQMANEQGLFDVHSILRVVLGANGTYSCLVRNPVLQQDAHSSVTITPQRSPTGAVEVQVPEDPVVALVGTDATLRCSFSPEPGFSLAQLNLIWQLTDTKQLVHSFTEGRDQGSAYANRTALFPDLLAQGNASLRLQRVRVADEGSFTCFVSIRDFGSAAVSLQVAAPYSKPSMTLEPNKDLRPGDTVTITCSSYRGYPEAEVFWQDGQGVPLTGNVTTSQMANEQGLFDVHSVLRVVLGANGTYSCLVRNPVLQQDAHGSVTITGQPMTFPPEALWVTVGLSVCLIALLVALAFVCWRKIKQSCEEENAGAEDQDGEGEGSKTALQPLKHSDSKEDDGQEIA
Test: Affinity determination by surface plasmon resonance (SPR) to 4Ig B7-H3
Conditions: SPR KD—25° C., 4Ig B7-H3; 25° C. flow cell temperature

| Kd [nM] | Compound |
| --- | --- |
| 1 to 10 | CCCC[C@H](NC(C)=O)C(=O)N[C@@H](Cc1ccc(O)cc1)C(=O)N[C@H]1CSSC[C@@H](C(=O)N[C@@H](Cc2cccc3ccccc23)C(=O)N[C@@H](Cc2ccccc2)C(=O)N[C@H](C(=O)N[C@H](CCCCNC(=O)CN2CCN(CC(=O)O)CCN(CC(=O)O)CCN(CC(=O)O)CC2)C(N)=O)[C@@H](C)O)NC(=O)[C@H](Cc2ccc(O)cc2)NC(=O)C(C(C)C)NC(=O)[C@H](CC(=O)O)NC(=O)[C@H](Cc2ccc(O)cc2)NC(=O)[C@H](CCCCN)NC(=O)CNC(=O)[C@H](C(C)C)NC1=O (stereo partly drawn) [compound 128, Ac-Nle-Y-C-V-G-K-Y-D-V-Y-C-1Nal-F-Thr-dLys(DOTA)-CONH2] (Ac-[Nle]YCVGKYD[ξV]YC[1Nal]FT[dK](DOTA)-NH2; disulfide 3-11) |
| 10 to 100 | CC(C)CC[C@H](NC(=O)COCCOCCOCCOCCNC(=O)CN1CCN(CC(=O)O)CCN(CC(=O)O)CCN(CC(=O)O)CC1)C(=O)N[C@@H](Cc1ccc(O)cc1)C(=O)N[C@H]1CSSC[C@@H](C(=O)N[C@@H](Cc2c[nH]c3ccc(F)cc23)C(=O)N[C@@H](Cc2ccccc2)C(=O)N2CCC[C@H]2C(=O)O)NC(=O)[C@H](Cc2ccc(O)cc2)NC(=O)[C@H](C(C)C)NC(=O)[C@H](CC(=O)O)NC(=O)[C@H](CC2CCOCC2)NC(=O)[C@H](CCCCN)NC(=O)CNC(=O)[C@H](C(C)(C)C)NC1=O [Cpd #306, DOTA-PEG4-hLeu-Y-C-Tbg-G-K-ThpA-D-V-Y-C-5FW-F-Pro-COOH] ({DOTA}-[NH(CH2CH2O)4CH2CO][hLeu]YC[Tle]GK[Ala(4-THP)]DVYC[Trp(5-F)]FP-OH; disulfide 4-12) |
| 10 to 100 | CC(=O)N[C@@H](CCC(C)C)C(=O)N[C@@](C)(Cc1ccc(O)cc1)C(=O)N[C@H]1CSSC[C@@H](C(=O)N[C@@H](Cc2c[nH]c3ccc(F)cc23)C(=O)N[C@@H](Cc2ccccc2)C(=O)N[C@H](C(=O)N[C@H](CCCCNC(=O)CN2CCN(CC(=O)O)CCN(CC(=O)O)CCN(CC(=O)O)CC2)C(N)=O)[C@@H](C)O)NC(=O)[C@H](Cc2ccc(O)cc2)NC(=O)[C@H](C(C)C)NC(=O)[C@H](CC(=O)O)NC(=O)[C@H](Cc2ccc(O)cc2)NC(=O)[C@H](CCCCN)NC(=O)CNC(=O)[C@H](C(C)C)NC1=O [compound 195, Ac-hLeu-aMeTyr-C-V-G-K-Y-D-V-Y-C-5FW-F-Thr-dLys(DOTA)-CONH2] (Ac-[hLeu][αMeY]CVGKYDVYC[Trp(5-F)]FT[dK](DOTA)-NH2; disulfide 3-11) |
| < 1 | CC(=O)N[C@@H](CCC(C)C)C(=O)N[C@@H](Cc1ccc(O)cc1)C(=O)N[C@H]1CSSC[C@@H](C(=O)N[C@@H](Cc2c[nH]c3ccc(F)cc23)C(=O)N[C@@H](Cc2cccc(F)c2)C(=O)N[C@H](C(=O)N[C@H](CCCCNC(=O)CN2CCN(CC(=O)O)CCN(CC(=O)O)CCN(CC(=O)O)CC2)C(N)=O)[C@@H](C)O)NC(=O)[C@H](Cc2ccc(O)cc2)NC(=O)[C@H](C(C)C)NC(=O)[C@H](CC(=O)O)NC(=O)[C@H](Cc2ccc(O)cc2)NC(=O)[C@H](CCCCN)NC(=O)CNC(=O)[C@H](C(C)C)NC1=O [compound 173, Ac-hLeu-Y-C-V-G-K-Y-D-V-Y-C-5FW-3FPhe-Thr-dLys(DOTA)-CONH2] (Ac-[hLeu]YCVGKYDVYC[Trp(5-F)][Phe(3-F)]T[dK](DOTA)-NH2; disulfide 3-11) |
| 1 to 10 | CCCC[C@H](NC(C)=O)C(=O)N[C@@H](Cc1ccc(O)cc1)C(=O)N[C@H]1CSSC[C@@H](C(=O)N[C@@H](Cc2c[nH]c3ccccc23)C(=O)N[C@@H](Cc2ccccc2)C(=O)N[C@H](C(=O)N[C@H](CCCCNC(=O)CN2CCN(CC(=O)O)CCN(CC(=O)O)CCN(CC(=O)O)CC2)C(N)=O)[C@@H](C)O)NC(=O)[C@H](Cc2ccc(O)cc2)NC(=O)[C@H](C(C)C)NC(=O)[C@H](CC(=O)O)NC(=O)[C@H](Cc2ccc(O)cc2)NC(=O)[C@H](CCCNC(=N)N)NC(=O)CNC(=O)[C@H](C(C)C)NC1=O [compound 85, Ac-Nle-Y-C-V-G-Arg-Y-D-V-Y-C-W-F-Thr-dLys(DOTA)-CONH2] (Ac-[Nle]YCVGRYDVYCWFT[dK](DOTA)-NH2; disulfide 3-11) |

Same assay, conditions: SPR KD—37° C., 4Ig B7-H3; 37° C. flow cell temperature

| Kd [nM] | Compound |
| --- | --- |
| < 1 | CC(=O)N[C@@H](CCC(C)C)C(=O)N[C@@H](Cc1ccc(O)cc1)C(=O)N[C@H]1CSSC[C@@H](C(=O)N[C@@H](Cc2c[nH]c3ccc(F)cc23)C(=O)N[C@@H](Cc2ccccc2)C(=O)N[C@H](C(=O)N[C@H](CCCCNC(=O)CN2CCN(CC(=O)O)CCN(CC(=O)O)CCN(CC(=O)O)CC2)C(=O)O)C(C)(C)O)NC(=O)[C@H](Cc2ccc(O)cc2)NC(=O)[C@H](C(C)C)NC(=O)[C@H](CC(=O)O)NC(=O)[C@H](CC2CCC(O)CC2)NC(=O)[C@H](CC2CCNCC2)NC(=O)CNC(=O)[C@H](C(C)(C)C)NC1=O (single isomer, unassigned) [compound 479, Ac-hLeu-Y-C-Tbg-G-PipAla-4OHCha(pk1)-D-V-Y-C-5FW-F-hydroxyVal-dLys(DOTA)-COOH] |
| 10 to 100 | CCCC[C@H](NC(=O)[C@H](Cc1c[nH]c2ccc(F)cc12)NC(=O)[C@@H]1CSSC[C@H](NC(=O)[C@H](Cc2ccc(O)cc2)NC(=O)[C@H](CCC(C)C)NC(C)=O)C(=O)N[C@@H](C(C)(C)C)C(=O)NCC(=O)N[C@@H](CCCCNC(=O)CN2CCN(CC(=O)O)CCN(CC(=O)O)CCN(CC(=O)O)CC2)C(=O)N[C@@H](CC2CCOCC2)C(=O)N[C@@H](CC(=O)O)C(=O)N[C@@H](C(C)C)C(=O)N[C@@H](Cc2ccc(O)cc2)C(=O)N1)C(=O)N[C@H](C(N)=O)C(C)(C)O [compound 336, Ac-hLeu-Y-C-Tbg-G-Lys(DOTA)-ThpA-D-V-Y-C-5FW-Nle-hydroxyVal-CONH2] (Ac-[hLeu]YC[Tle]GK(DOTA)[Ala(4-THP)]DVYC[Trp(5-F)][Nle][Val(3-OH)]-NH2; disulfide 3-11) |
| < 1 | CC(=O)N[C@@H](CCC(C)C)C(=O)N[C@@H](Cc1ccc(O)cc1)C(=O)N[C@H]1CSSC[C@@H](C(=O)N[C@@H](Cc2c[nH]c3ccc(F)cc23)C(=O)N[C@H](C(=O)N[C@H](C(=O)N[C@H](CCCCNC(=O)[C@H](CCCC(=O)O)NC(=O)CN2CCN(CC(=O)O)CCN(CC(=O)O)CCN(CC(=O)O)CC2)C(=O)O)C(C)(C)O)[C@@H](C)c2ccccc2)NC(=O)[C@H](Cc2ccc(O)cc2)NC(=O)[C@H](C(C)C)NC(=O)[C@H](CC(=O)O)NC(=O)[C@H](CC2CCOCC2)NC(=O)[C@H](CC2CCN(CC(=O)O)CC2)NC(=O)CNC(=O)[C@H](C(C)(C)C)NC1=O [compound 525, Ac-hLeu-Y-C-Tbg-G-Pip(CH2COOH)Ala-ThpA-D-V-Y-C-5FW-[(2S, 3S)beta-Me-Phe]-hydroxyVal-dLys(hGlu-DOTA)-COOH] (Ac-[hLeu]YC[Tle]G[Ala(1-CH2CO2H-4-piperidyl)][Ala(4-THP)]DVYC[Trp(5-F)][X1][Val(3-OH)][dK]([Aad-DOTA])-OH; disulfide 3-11) |
| 10 to 100 | CC(C)CC[C@H](NC(=O)CCOCCOCCOCCOCCOCCOCCOCCOCCNC(=O)CCCc1ccc(I)cc1)C(=O)N[C@@H](Cc1ccc(O)cc1)C(=O)N[C@H]1CSSC[C@@H](C(=O)N[C@@H](Cc2c[nH]c3ccc(F)cc23)C(=O)N[C@@H](Cc2ccccc2)C(=O)N[C@H](C(=O)N[C@H](CCCCNC(=O)CN2CCN(CC(=O)O)CCN(CC(=O)O)CCN(CC(=O)O)CC2)C(=O)O)C(C)(C)O)NC(=O)[C@H](Cc2ccc(O)cc2)NC(=O)[C@H](C(C)C)NC(=O)[C@H](CC(=O)O)NC(=O)[C@H](CC2CCOCC2)NC(=O)[C@H](CCCCN)NC(=O)CNC(=O)[C@H](C(C)(C)C)NC1=O [compound 365, AB-PEG8-hLeu-Y-C-Tbg-G-K-ThpA-D-V-Y-C-5FW-F-hydroxyVal-dLys(DOTA)-COOH] ({Butanoyl(4-(4-I-phenyl))-PEG8}-[hLeu]YC[Tle]GK[Ala(4-THP)]DVYC[Trp(5-F)]F[Val(3-OH)][dK](DOTA)-OH; disulfide 3-11) |
